In patent US20250000843A1, “LIGNAN-INSPIRED COMPOUNDS, METHODS OF MAKING, AND USING THEREOF” (IOWAIBO, INC., priority 2023, published 2025):

Tests used:
[1] = test system: PC3, a human prostate cancer cell line; assay: MTT toxicity assay in PC3 prostate cancer cells; format: cell-based
Protocol: Toxicity of the dibenzyl butyl lactone derivative (3-[(3,4-dimethoxyphenyl)cyclopentyl], 4-[(3-hydroxyphenol)methyl]oxolan-2-one) in breast cancer cells was evaluated using MTT assay. The MTT toxicity test is a colorimetric assay to measure cells' metabolic activity by serving as a substrate of cellular enzymes that reduce the tetrazolium orange dye, MTT (3-(4,5-Dimethylthiazol-2-yl)-2,5-diphenyltetrazolium bromide) to its insoluble, formazan, giving a purple color. The rate of conversion is directly proportional to cells' mitochondrial metabolic activity via NAD (P) H-dependent cellular oxidoreductase enzymes and serves as a surrogate marker of cell viability.
Cells previously expanded were seeded in 96 well plates at 1.9×10^5 and 9.6×10^4 cells/plate for 24- and 72-hours treatment respectively. This concentration is known to show the best window for the MTT assay, with better sensitivity and low variability.
5 mg of powdered enterolactone, dibenzyl butyl lactone derivative enantiomer A, and dibenzyl butyl lactone derivative enantiomer B were dissolved in 500 μl of DMSO at room temperature. Eight-point curves, ⅓ dilutions (highest concentration 125 μM), were prepared.
Twenty-four hours following the seeding process, the cells were washed once with phosphate buffered saline (PBS) and treated with the respective compounds in cell culture media. Each condition was tested in triplicates. For positive and negative controls, 8 mM methyl methane sulfonate (MMS) and DMSO 100% were used respectively.
Following compound addition, the plates were incubated for 24 and 72 hours. After the treatment period, cells were washed twice with PBS and media was replaced with MTT reagent at 0.5 mg/ml in Dulbecco's modified Eagle medium (DMEM) without phenol red. The plates were gently shaken and incubated for 4 hours. After the incubation the medium was removed and replaced by DMSO. The plates were gently shaken to solubilize the formazan crystals. Absorbance was measured using an Envision multiplate reader at a wavelength of 570 nm.
Toxicity of the dibenzyl butyl lactone derivative (3-[(3,4-dimethoxyphenyl)cyclopentyl], 4-[(3-hydroxyphenol)methyl]oxolan-2-one) in prostate cancer cells was evaluated using MTT assay. The same methods as those used in Example 2 were employed, except the cell line used was PC3, a human prostate cancer cell line, and cell cultures were established in Kaighn's modification of Ham's […] medium.
MTT assay results are shown in Tables 16-21 and expressed as the percentage of cell death after treatment.

[2] = test system: human induced pluripotent stem (iPS) cells; format: cell-based
Protocol: The dibenzyl butyl lactone derivative enantiomer A and B were compared to enterolactone and tested to determine toxicity using a human pluripotent stem (hPS) cell-based assay that predicts the developmental toxicity potential. […] The current study was conducted using human induced pluripotent stem (iPS) cells.
The impact of test article exposure on ornithine and cystine metabolism in human induced pluripotent stem (iPS) cells was measured for three test articles (dibenzyl butyl lactone derivative enantiomer A, dibenzyl butyl lactone derivative enantiomer B, and enterolactone) and prediction of the potential for developmental toxicity was made through application of the hPS cell-based assay. Exposure spanned a range of eight treatment levels per test article ranging from 0.03-100 μM.
The observed decrease in the o/c ratio following exposure to each test article is indicative of the potential for developmental toxicity and/or embryo lethality in vivo at or above the dTP concentration. FIGS. 15A-C show the o/c ratio of dibenzyl butyl lactone derivative enantiomer A (FIG. 15A), dibenzyl butyl lactone derivative enantiomer B (FIG. 15B), and (+/−) enterolactone (FIG. 15C). The graphs in FIGS. 15A-C show the cell viability and o/c/ ratio over concentrations of 0.03-100 μM with the straight horizontal line illustrating the developmental toxicity threshold of 0.85.

For `O=C1OC[C@H](Cc2cccc(O)c2)[C@H]1Cc1cccc(O)c1` (racemic) [Enterolactone, reference compound], the “Cell death #1 (%)” value ([1]; PC3, 24 hours, 0.06 μM) was −3.37%, the “Cell death #2 (%)” value ([1]; PC3, 24 hours, 0.06 μM) was −20.79% and the “Cell death #3 (%)” value ([1]; PC3, 24 hours, 0.06 μM) was −22.43%. The “Cell death (%) MEAN” value ([1]; PC3, 24 hours, 0.06 μM) was −15.53%, the “Cell death #1 (%)” value ([1]; PC3, 24 hours, 0.17 μM) was −12.56% and the “Cell death #2 (%)” value ([1]; PC3, 24 hours, 0.17 μM) was −5.41%. For the same compound, the “Cell death #3 (%)” value ([1]; PC3, 24 hours, 0.17 μM) was −10.24%, the “Cell death (%) MEAN” value ([1]; PC3, 24 hours, 0.17 μM) was −9.40% and the “Cell death #1 (%)” value ([1]; PC3, 24 hours, 0.51 μM) was −29.78%. The “Cell death #2 (%)” value ([1]; PC3, 24 hours, 0.51 μM) was −35.88%, the “Cell death #3 (%)” value ([1]; PC3, 24 hours, 0.51 μM) was −8.98% and the “Cell death (%) MEAN” value ([1]; PC3, 24 hours, 0.51 μM) was −24.88%. The “Cell death #1 (%)” value ([1]; PC3, 24 hours, 1.54 μM) was −30.56%, the “Cell death #2 (%)” value ([1]; PC3, 24 hours, 1.54 μM) was −47.58% and the “Cell death #3 (%)” value ([1]; PC3, 24 hours, 1.54 μM) was −25.82%. The “Cell death (%) MEAN” value ([1]; PC3, 24 hours, 1.54 μM) was −34.65%, the “Cell death #1 (%)” value ([1]; PC3, 24 hours, 4.63 μM) was −41.49% and the “Cell death #2 (%)” value ([1]; PC3, 24 hours, 4.63 μM) was −38.59%. The “Cell death #3 (%)” value ([1]; PC3, 24 hours, 4.63 μM) was −32.20%, the “Cell death (%) MEAN” value ([1]; PC3, 24 hours, 4.63 μM) was −37.42% and the “Cell death #1 (%)” value ([1]; PC3, 24 hours, 13.89 μM) was −33.85%. The “Cell death #2 (%)” value ([1]; PC3, 24 hours, 13.89 μM) was −41.29%, the “Cell death #3 (%)” value ([1]; PC3, 24 hours, 13.89 μM) was −40.62% and the “Cell death (%) MEAN” value ([1]; PC3, 24 hours, 13.89 μM) was −38.59%. The “Cell death #1 (%)” value ([1]; PC3, 24 hours, 41.67 μM) was −32.30%, the “Cell death #2 (%)” value ([1]; PC3, 24 hours, 41.67 μM) was −17.98% and the “Cell death #3 (%)” value ([1]; PC3, 24 hours, 41.67 μM) was −35.59%. For the same compound, the “Cell death (%) MEAN” value ([1]; PC3, 24 hours, 41.67 μM) was −28.62%, the “Cell death #1 (%)” value ([1]; PC3, 24 hours, 125.00 μM) was 19.65% and the “Cell death #2 (%)” value ([1]; PC3, 24 hours, 125.00 μM) was 12.01%. For the same compound, the “Cell death #3 (%)” value ([1]; PC3, 24 hours, 125.00 μM) was 15.10%, the “Cell death (%) MEAN” value ([1]; PC3, 24 hours, 125.00 μM) was 15.59% and the “Cell death #1 (%)” value ([1]; PC3, 72 hours, 0.06 μM) was −39.68%. The “Cell death #2 (%)” value ([1]; PC3, 72 hours, 0.06 μM) was −40.18%, the “Cell death #3 (%)” value ([1]; PC3, 72 hours, 0.06 μM) was −37.32% and the “Cell death (%) MEAN” value ([1]; PC3, 72 hours, 0.06 μM) was −39.06%. For the same compound, the “Cell death #1 (%)” value ([1]; PC3, 72 hours, 0.17 μM) was −49.03%, the “Cell death #2 (%)” value ([1]; PC3, 72 hours, 0.17 μM) was −43.54% and the “Cell death #3 (%)” value ([1]; PC3, 72 hours, 0.17 μM) was −39.93%. The “Cell death (%) MEAN” value ([1]; PC3, 72 hours, 0.17 μM) was −44.17%, the “Cell death #1 (%)” value ([1]; PC3, 72 hours, 0.51 μM) was −71.45% and the “Cell death #2 (%)” value ([1]; PC3, 72 hours, 0.51 μM) was −77.56%. The “Cell death #3 (%)” value ([1]; PC3, 72 hours, 0.51 μM) was −73.70%, the “Cell death (%) MEAN” value ([1]; PC3, 72 hours, 0.51 μM) was −74.24% and the “Cell death #1 (%)” value ([1]; PC3, 72 hours, 1.54 μM) was −63.98%. The “Cell death #2 (%)” value ([1]; PC3, 72 hours, 1.54 μM) was −69.71%, the “Cell death #3 (%)” value ([1]; PC3, 72 hours, 1.54 μM) was −46.41% and the “Cell death (%) MEAN” value ([1]; PC3, 72 hours, 1.54 μM) was −60.03%. The “Cell death #1 (%)” value ([1]; PC3, 72 hours, 4.63 μM) was −74.57%, the “Cell death #2 (%)” value ([1]; PC3, 72 hours, 4.63 μM) was −70.83% and the “Cell death #3 (%)” value ([1]; PC3, 72 hours, 4.63 μM) was −81.17%. The “Cell death (%) MEAN” value ([1]; PC3, 72 hours, 4.63 μM) was −75.52%, the “Cell death #1 (%)” value ([1]; PC3, 72 hours, 13.89 μM) was −60.86% and the “Cell death #2 (%)” value ([1]; PC3, 72 hours, 13.89 μM) was −51.02%. The “Cell death #3 (%)” value ([1]; PC3, 72 hours, 13.89 μM) was −63.98%, the “Cell death (%) MEAN” value ([1]; PC3, 72 hours, 13.89 μM) was −58.62% and the “Cell death #1 (%)” value ([1]; PC3, 72 hours, 41.67 μM) was −35.45%. The “Cell death #2 (%)” value ([1]; PC3, 72 hours, 41.67 μM) was −32.21%, the “Cell death #3 (%)” value ([1]; PC3, 72 hours, 41.67 μM) was −34.95% and the “Cell death (%) MEAN” value ([1]; PC3, 72 hours, 41.67 μM) was −34.20%. For the same compound, the “Cell death #1 (%)” value ([1]; PC3, 72 hours, 125.00 μM) was 35.94%, the “Cell death #2 (%)” value ([1]; PC3, 72 hours, 125.00 μM) was 32.46% and the “Cell death #3 (%)” value ([1]; PC3, 72 hours, 125.00 μM) was 22.11%. The “Cell death (%) MEAN” value ([1]; PC3, 72 hours, 125.00 μM) was 30.17%, the “cytotoxicity compared with the other test articles” value [2] was “less cytotoxic than dibenzyl butyl lactone derivative enantiomers A and B” and the “TP Concentration” value ([2]; human) was 230.8 µM. For the same compound, the “dTP Concentration” value ([2]; human) was 21.8 µM and the “similarity of dTP concentrations between all three compounds” value ([2]; human) was at most 2 fold.
